Laboratory results as given in patent US9365499B2, “9-aminomethyl substituted tetracycline compounds” (KBP Biosciences Co., Ltd., priority 2011, dated 2016).
≈ marks a conversion by molar mass, not a printed value. Where two headings read alike, the source gives them in different places.

Legend:
[1] = system: Staphylococcus aureus; experiment: bactericidal effects in vivo in neutropenic mouse thigh model with Staphylococcus aureus infection; set-up: species or system mice; settings: for change values (24 h vs blank group mean 0 h) / log10 CFU for each thigh, mean ± standard deviations (24 h): 2 dose times, subcutaneous
Experimental: Bactericidal Effects of the Present Compounds In Vivo in Mouse Thigh Model with Staphylococcus aureus Infection SPF grade CD-1 (ICR) female mice housed in SPF environment, weighing 25±2 g, purchased from Beijing Vital River Laboratory Animal Technology Co., Ltd., licensed […] No: SCXK (Beijing) 2006-0009. Staphylococcus aureus: purchased from Shanghai Renji Hospital. Four days before bacterial infection, intraperitoneal (ip) injection of cyclophosphamide 150 mg/kg; 1 day before bacterial infection, intraperitoneal (ip) injection of cyclophosphamide 100 mg/kg; Picked fresh Staphylococcus aureus single colonies which were plate cultured for 18 h, and inoculated into broth and cultured at 35° C. for 18 h. The bacterial suspension was diluted with broth, and 0.5 McFarland turbidity standard indicator bacteria suspension was prepared with a McFarland turbiditor, 10-fold diluted with broth and injected into the thigh muscle of mice in an amount of 0.1 mL for each thigh. The concentration of the bacteria suspension was about 10^6-10^7 CFU/ml. The inoculum concentration was determined by an agar-plate count method. Blank Group: the animals were sacrificed by dislocation at 2 h (recorded as 0 h) after the inoculation of bacteria. Solvent group: The first administration time was set at 2 h (denoted as 0 h) after the animals were infected with bacteria, the solvent was subcutaneously administrated, the animals were sacrificed by dislocation at 24 h after the administration. Treatment group: The first administration time was set at 2 h (denoted as 0 h). […] The thigh muscle tissue was separated from the sacrificed animals, and 5 mL of sodium chloride injection was added, homogenated. The homogenate obtained were diluted series, taken 0.05 mL and inoculated to agar plates, two plates were inoculated in parallel for each gradient bacterial suspension, and incubated at 35° C. for 18 h. Observe the growth of the colonies on each plate, and select the plates with the number of colonies between 30-300 for colony count. The number of colonies was recorded as n1, n2. N represents the diluted fold. The number of colonies (units CFU) for each thigh was calculated according to the formula of “(n1+n2)/2/0.05×5×N”. A logarithm to the base 10 for the number of colonies of each thigh was calculated to obtain log10 CFU value for each thigh.

[2] = system: Streptococus agalactiae; experiment: antibacterial activity in vitro, agar dilution method; type: cell-based; settings: Table 4
From the text: (§1) The antibacterial spectrum and in vitro antibacterial activity of the compound of the present invention
(§2) Experimental method: the agar dilution method, with reference to Clinical And Laboratory Standards Institute. Methods for Dilution Antimicrobial Susceptibility Tests for Bacteria That Grow Aerobically; Approved Standard-Seventh Edition. CLSI Document M7-A7. Vol 26, no. 2, Wayne, Pa.: Clinical and Laboratory Standards Institute, 2006.
(§3) Wherein MIC represents the minimum inhibitory concentration, MIC90 represents the 90% inhibitory concentration.

[3] = system: Escherichia coli; experiment: as above; type: cell-based
From the text: as §1, §2, §3

[4] = system: Methicillin-resistant Staphycoccus epidermidis (MRSE); experiment: as above; type: cell-based; settings: Staphylococcus epidermidis, Table 2
From the text: as §1, §2, §3

[5] = system: Streptococcus constellatus; experiment: as above; type: cell-based; settings: Table 5, MIC90 = 90% inhibitory concentration
From the text: as §1, §2, §3

[6] = system: Acinetobacter baumannii; experiment: as above; type: cell-based; settings: for MIC90: Table 5, MIC90 = 90% inhibitory concentration
From the text: as §1, §2, §3

[7] = system: Acinetobacter calcoaceticus; experiment: as above; type: cell-based; settings: Table 4
From the text: as §1, §2, §3

[8] = system: Staphylococcus aureus; experiment: as above; type: cell-based; settings: for MIC90: Staphylococcus aureus, Table 5, MIC90 = 90% inhibitory concentration; for MIC: Table 10, Staphylococcus aureus of the thigh model
From the text: as §1, §2, §3

[9] = system: Methicillin-resistant Staphylococcus aureus (MRSA); experiment: as above; type: cell-based; settings: for MIC90: Table 5, MIC90 = 90% inhibitory concentration
From the text: as §1, §2, §3

[10] = system: Streptococcus pyogenes; experiment: as above; type: cell-based; settings: Table 2
From the text: as §1, §2, §3

[11] = system: Klebsiella pneumoniae; experiment: as above; type: cell-based
From the text: as §1, §2, §3

[12] = system: Hemophilus influenzae; experiment: as above; type: cell-based; settings: Haemophilus influenzae; Table 5; MIC90 = 90% inhibitory concentration
From the text: as §1, §2, §3

[13] = system: Enterococcus faecalis; experiment: as above; type: cell-based; settings: Table 4
From the text: as §1, §2, §3

[14] = in vivo; set-up: species or system male SD rats; settings: male, SD, rat, 5 mg/kg
Experimental: Test animals: male SD rats, weighing 180-280 g, purchased from Beijing Vital River Laboratory Animal Technology Co., Ltd.; animal Certificate of Conformity: SCXK (Beijing) 2006-0009. Six rats were tested for each compound. the compounds of the present invention, prepared in accordance with the methods of above Examples, dissolved in physiological saline. tigecycline, dissolved in physiological saline. Administration of the compounds of the present invention: intravenous bolus injection (iv), dose: 5 mg/kg, administrating volume: 5 mL/kg; gavage (po), dose: 5 mg/kg, administrating volume: 5 mL/kg. Administration of tigecycline: gavage (po), dose: 10 mg/kg, administrating volume: 5 mL/kg. Prior to administration help but water fasting for 16 hours, 4 hours after administration to food. Compound 9: iv blood sampling time point: denoted by 0 min before administration, 5 min, 15 min, 30 min, 1 […] after administration; po blood sampling time point: denoted by 0 min before administration, 5 min, 15 min, 30 min, 1 […] after administration; Compound 20: iv blood sampling time point: 5 min, 15 min, 30 min, 1 […] after administration; po blood sampling time point: 10 min, 30 min, 1 […] after administration; Compound 23: iv blood sampling time point: denoted by 0 min before administration, 5 min, 15 min, 30 min, 1 […] after administration; po blood sampling time point: denoted by 0 min before administration, 5 min, 15 min, 30 min, 1 […] after administration; Tigecycline: iv blood sampling time point: 5 min, 15 min, 30 min, 1 h, 2 h, 4 h, 6 h, 8 h after administration; po blood sampling time point: 10 min, 30 min, 1 […] after administration. Each time point is taken around 100 μl whole blood and placed in a heparinized tube, centrifugated at 8000 rpm/min at 4° C. for 6 minutes in a low-temperature high-speed centrifuge to separate plasma, the resulting plasma was frozen at -80° C. refrigerator. Plasma samples analysis: 20 μl of plasma was taken and added 200 μl of internal standard solution, subjected to vortex for 3 minutes, then to centrifugation at 12,000 rpm/min for 5 minutes. 100 μl of supernatant was taken and analyzed using LC-MS/MS. Formula Absolute Bioavailability F%=[AUC](po)×Dose(iv)/[AUC](iv)×Dose(po)

[15] = Table 4, agar dilution, read-out: antibacterial activity MIC, Acinetobacter baumannii

| Structure (SMILES) | change values (24 h vs blank group mean 0 h) ([1]; 2 mg/kg/day) [log10 CFU] | log10 CFU for each thigh, mean ± standard deviations (24 h) ([1]; 2 mg/kg/day) [log10 CFU] | bactericidal effect against Staphylococcus aureus in vivo in mice ([1]; 6 mg/kg/day) | change values (24 h vs blank group mean 0 h) ([1]; 6 mg/kg/day) [log10 CFU] | log10 CFU for each thigh, mean ± standard deviations (24 h) ([1]; 6 mg/kg/day) [log10 CFU] | change values (24 h vs blank group mean 0 h) ([1]; 18 mg/kg/day) [log10 CFU] | log10 CFU for each thigh, mean ± standard deviations (24 h) ([1]; 18 mg/kg/day) [log10 CFU] | MIC [2] [µg/mL] | MIC ([3]; Table 4) [µg/mL] | MIC90 [5] [µg/mL] | MIC [6, 15] [µg/mL] | MIC90 [6] [µg/mL] | MIC [7] [µg/mL] | MIC90 [8] [µg/mL] | MIC [8] [µg/mL] | MIC ([9]; Table 4, agar dilution) [µg/mL] | MIC90 [9] [µg/mL] | MIC ([11]; Table 4) [µg/mL] | MIC90 [12] [µg/mL] | MIC [13] [µg/mL] | also measured |
| --- | --- | --- | --- | --- | --- | --- | --- | --- | --- | --- | --- | --- | --- | --- | --- | --- | --- | --- | --- | --- | --- |
| CN(C)c1cc(CNCC(C)(C)C)c(O)c2c1C[C@H]1C[C@H]3[C@H](N(C)C)C(O)=C(C(N)=O)C(=O)[C@@]3(O)C(O)=C1C2=O [PTK-0796, reference compound] | 1.77 | 8.16 ± 0.13 | did not show bactericidal effect | 1.20 | 7.59 ± 0.21 | −1.05 | 5.34 ± 0.79 | 0.5 (≈ 0.898 µM) | 4 (≈ 7.19 µM) | 0.5 (≈ 0.898 µM) | 4 (≈ 7.19 µM) | 8 (≈ 14.4 µM) | 0.5 (≈ 0.898 µM) | 0.5 (≈ 0.898 µM) | 0.5 (≈ 0.898 µM) | 2 (≈ 3.59 µM) | 2 (≈ 3.59 µM) | 8 (≈ 14.4 µM) | 1 (≈ 1.8 µM) | 0.25 (≈ 0.449 µM) | bacteria growing values of each thigh ([1]; 6 mg/kg/day): 1.20; MIC ([3]; Table 2): 1 µg/mL (≈ 1.8 µM); MIC [4]: 0.5 µg/mL (≈ 0.898 µM); MIC ([6]; Table 2, agar dilution, read-out: antibacterial activity MIC, Acinetbacter baumannii): 2 µg/mL (≈ 3.59 µM); MIC ([9]; Table 2, agar dilution): 0.5 µg/mL (≈ 0.898 µM); MIC [10]: 0.25 µg/mL (≈ 0.449 µM); MIC ([11]; Table 2): 4 µg/mL (≈ 7.19 µM) |
| CN(C)c1cc(CN2CC3CC3C2)c(O)c2c1C[C@H]1C[C@H]3[C@H](N(C)C)C(O)=C(C(N)=O)C(=O)[C@@]3(O)C(O)=C1C2=O (stereo partly drawn) [Compound 23, (4S,4aS,5aR,12aS)-9-(3-azabicyclo[3.1.0]hexan-3-ylmethyl)-4,7-bis(dimethylamino)-3,10,12,12a-tetrahydroxy-1,11-dioxo-1,4,4a,5,5a,6,11,12a-octahydrotetracene-2-carboxamide] | 1.28 | 7.67 ± 0.17 | had bactericidal effect | −0.12 | 6.27 ± 0.41 | −2.04 | 4.35 ± 0.45 | 0.06 (≈ 0.109 µM) | 0.25 (≈ 0.452 µM) | 0.125 (≈ 0.226 µM) | 1 (≈ 1.81 µM) | 2 (≈ 3.62 µM) | 0.125 (≈ 0.226 µM) | 0.25 (≈ 0.452 µM) | 0.25 (≈ 0.452 µM) | 0.25 (≈ 0.452 µM) | 0.5 (≈ 0.905 µM) | 1 (≈ 1.81 µM) | 0.5 (≈ 0.905 µM) | 0.06 (≈ 0.109 µM) | AUC(0-inf) ([14]; iv): 9110 ng·h/mL; Vd ([14]; iv): 5 L/kg; clearance ([14]; iv): 9.33 mL/min/kg; half-life ([14]; iv): 9.94 h; AUC(0-inf) ([14]; po): 2000 ng·h/mL; Cmax ([14]; po): 199 ng/mL; Tmax ([14]; po): 1 h; bioavailability ([14]; po): 22%; bacteria reducing value of each thigh ([1]; 6 mg/kg/day): 0.12 |
